Experimental data taken from US10258701B2, “Labeled evans blue dye derivative for in vivo serum albumin labeling” (The United States of America, as represented by the …, priority 2015, dated 2019).

Key:
[1] = Multiple time point whole-body PET in healthy volunteers (SUV); type: in vivo, human
Description: This clinical study was approved by the Institute Review Board of Peking Union Medical College Hospital, Chinese Academy of Medical Sciences and Peking Union Medical College. Three healthy volunteers (2 males and 1 female) were enrolled with written informed consent to validate the safety of ^68Ga-NEB. No fasting, hydration or other specific preparation was requested on the day of imaging. Any unusual or adverse clinical symptoms were recorded on the day of imaging and during the 2-week follow-up period.
All three healthy volunteers underwent whole-body PET acquisitions (Biograph mCT PET/CT system, Siemens) at multiple time points after tracer injection. After the whole-body low-dose CT scan (140 kV, 35 mA, pitch 1:1, layer 5 mm, layer spacing 3 mm, matrix 512×512, FOV 70 cm), 111-148 MBq (3-4 mCi) of ^68Ga-NEB was injected intravenously. The whole body (from the top of skull to the middle of femur) of each volunteer was covered by 7 bed positions. The acquisition duration was 40 sec/bed position for the 5 min, 10 min and 15 min time points, 2 min/bed position for the 30 min, 45 min, 60 min, 75 min and 90 min time points.
(§1) A Siemens MMWP workstation was used for post-processing. Visual analysis was used to determine the general biodistribution and the temporal and inter-subject stability. The volume of interest (VOI) of 12 normal organs/tissues and concerned lesions were drawn on the serial images. The radioactivity concentration and standardized uptake value (SUV) in the VOIs were obtained through the software. Organ dosimetry was calculated by using organ-level internal dose assessment software. All quantitative data were expressed as mean±standard deviation.
From 5 to 90 min, no dramatic distribution change was observed, confirming the in vivo stability and long blood pool retention of ^68Ga-NEB (FIG. 28). Increased bladder accumulation was observed over time.

[2] = human, in vivo
Description: Dosimetry study confirmed the safety with acceptable absorbed doses by critical organs even with multiple injections for one patient.
as §1
The mean absorbed radiation doses based on multiple time point PET imaging of three volunteers were similar to those based on mouse biodistribution data. The major organs that received relatively high doses were kidneys, liver, spleen, and heart wall. The bladder wall also received high exposure due to renal excretion of the radioactivity (0.0683±0.0090 mSv/MBq). The whole body absorbed dose was 0.0151±0.0001 mSv/MBq with an effective dose of 0.0179±0.0003 mSv/MBq.

With `Cc1cc(-c2ccc(NC(=O)CN3CCN4CCN(CC3)CC(=O)[O][68GaH][O]C(=O)C4)c(C)c2)ccc1N=Nc1ccc2c(S(=O)(=O)O)cc(S(=O)(=O)O)c(N)c2c1O` [^68Ga-NEB] the “average standardized uptake value, Stomach” value ([1]; 15 min after i.v.) was 1.23 ± 0.12, the “average standardized uptake value, Blood” value ([1]; 30 min after i.v.) was 6.93 ± 0.21 and the “average standardized uptake value, Bone” value ([1]; 30 min after i.v.) was 1.67 ± 0.15. The “average standardized uptake value, Kidneys” value ([1]; 30 min after i.v.) was 3.77 ± 0.29, the “average standardized uptake value, Liver” value ([1]; 30 min after i.v.) was 3.57 ± 0.46 and the “average standardized uptake value, Lung” value ([1]; 30 min after i.v.) was 1.30 ± 0.17. The “average standardized uptake value, Muscle” value ([1]; 30 min after i.v.) was 0.57 ± 0.12, the “average standardized uptake value, Pancreas” value ([1]; 30 min after i.v.) was 1.67 ± 0.15 and the “average standardized uptake value, S. Intestine” value ([1]; 30 min after i.v.) was 1.63 ± 0.15. The “average standardized uptake value, Spleen” value ([1]; 30 min after i.v.) was 3.90 ± 0.61, the “average standardized uptake value, Stomach” value ([1]; 30 min after i.v.) was 1.23 ± 0.06 and the “average standardized uptake value, Blood” value ([1]; 45 min after i.v.) was 6.70 ± 0.26. The “average standardized uptake value, Bone” value ([1]; 45 min after i.v.) was 1.50 ± 0.20, the “average standardized uptake value, Kidneys” value ([1]; 45 min after i.v.) was 3.87 ± 0.32 and the “average standardized uptake value, Liver” value ([1]; 45 min after i.v.) was 3.50 ± 0.52. For the same compound, the “average standardized uptake value, Lung” value ([1]; 45 min after i.v.) was 1.30 ± 0.20, the “average standardized uptake value, Muscle” value ([1]; 45 min after i.v.) was 0.53 ± 0.06 and the “average standardized uptake value, Pancreas” value ([1]; 45 min after i.v.) was 1.67 ± 0.15. For the same compound, the “average standardized uptake value, S. Intestine” value ([1]; 45 min after i.v.) was 1.63 ± 0.06, the “average standardized uptake value, Spleen” value ([1]; 45 min after i.v.) was 3.77 ± 0.57 and the “average standardized uptake value, Stomach” value ([1]; 45 min after i.v.) was 1.23 ± 0.06. The “average standardized uptake value, Blood” value ([1]; 60 min after i.v.) was 6.20 ± 0.17, the “average standardized uptake value, Bone” value ([1]; 60 min after i.v.) was 1.37 ± 0.06 and the “average standardized uptake value, Kidneys” value ([1]; 60 min after i.v.) was 3.60 ± 0.10. For the same compound, the “average standardized uptake value, Liver” value ([1]; 60 min after i.v.) was 3.47 ± 0.47, the “average standardized uptake value, Lung” value ([1]; 60 min after i.v.) was 1.23 ± 0.06 and the “average standardized uptake value, Muscle” value ([1]; 60 min after i.v.) was 0.50 ± 0.00. For the same compound, the “average standardized uptake value, Pancreas” value ([1]; 60 min after i.v.) was 1.43 ± 0.15, the “average standardized uptake value, S. Intestine” value ([1]; 60 min after i.v.) was 1.47 ± 0.15 and the “average standardized uptake value, Spleen” value ([1]; 60 min after i.v.) was 3.73 ± 0.42. The “average standardized uptake value, Stomach” value ([1]; 60 min after i.v.) was 1.10 ± 0.00, the “average standardized uptake value, Blood” value ([1]; 75 min after i.v.) was 6.03 ± 0.12 and the “average standardized uptake value, Bone” value ([1]; 75 min after i.v.) was 1.27 ± 0.12. For the same compound, the “average standardized uptake value, Kidneys” value ([1]; 75 min after i.v.) was 3.43 ± 0.15, the “average standardized uptake value, Liver” value ([1]; 75 min after i.v.) was 3.43 ± 0.49 and the “average standardized uptake value, Lung” value ([1]; 75 min after i.v.) was 1.10 ± 0.17. The “average standardized uptake value, Muscle” value ([1]; 75 min after i.v.) was 0.47 ± 0.06, the “average standardized uptake value, Pancreas” value ([1]; 75 min after i.v.) was 1.37 ± 0.21 and the “average standardized uptake value, S. Intestine” value ([1]; 75 min after i.v.) was 1.33 ± 0.21. The “average standardized uptake value, Spleen” value ([1]; 75 min after i.v.) was 4.93 ± 2.10, the “average standardized uptake value, Stomach” value ([1]; 75 min after i.v.) was 1.07 ± 0.12 and the “average standardized uptake value, Blood” value ([1]; 90 min after i.v.) was 5.97 ± 0.15. For the same compound, the “average standardized uptake value, Bone” value ([1]; 90 min after i.v.) was 1.23 ± 0.15, the “average standardized uptake value, Kidneys” value ([1]; 90 min after i.v.) was 3.30 ± 0.20 and the “average standardized uptake value, Liver” value ([1]; 90 min after i.v.) was 3.33 ± 0.58. For the same compound, the “average standardized uptake value, Lung” value ([1]; 90 min after i.v.) was 1.07 ± 0.12, the “average standardized uptake value, Muscle” value ([1]; 90 min after i.v.) was 0.77 ± 0.64 and the “average standardized uptake value, Pancreas” value ([1]; 90 min after i.v.) was 1.37 ± 0.31. The “average standardized uptake value, S. Intestine” value ([1]; 90 min after i.v.) was 1.17 ± 0.32, the “average standardized uptake value, Spleen” value ([1]; 90 min after i.v.) was 3.57 ± 0.55 and the “average standardized uptake value, Stomach” value ([1]; 90 min after i.v.) was 1.03 ± 0.15. The “crossing of the blood-brain barrier” value ([1]; PET, normal brain tissue negligible accumulation) was “does not cross the blood-brain barrier”, the effective dose [2] was 0.0179±0.0003 mSv/MBq and the “mean absorbed radiation dose, bladder wall” value [2] was 0.0683±0.0090 mSv/MBq. For the same compound, the “radiation dose a patient would be exposed to” value [2] was 2.65 mSv and the “whole body absorbed dose” value [2] was 0.0151±0.0001 mSv/MBq.
